Test results: ChEMBL document CHEMBL1201862, “PubChem BioAssay data set” (2004)
The source made the active and inactive calls. For most assays here, no stated cut-off is given here; in the data, actives have a measured EC50 and inactives only a lower limit.

Legend:
[1] = microbe, parasite or virus in culture; assay type: functional; settings: Mycobacterium tuberculosis
[2] = target: T1, Corticotropin-releasing factor receptor 2/Corticotropin-releasing factor-binding protein (Homo sapiens, UniProt P24387+Q13324); experiment: activators of CRF receptor 2 with binding protein – uHTS hits, confirmation (AID 602473); assay type: functional; settings: read-out: EC50_Mean
T1 sequence (Q13324 whole entry): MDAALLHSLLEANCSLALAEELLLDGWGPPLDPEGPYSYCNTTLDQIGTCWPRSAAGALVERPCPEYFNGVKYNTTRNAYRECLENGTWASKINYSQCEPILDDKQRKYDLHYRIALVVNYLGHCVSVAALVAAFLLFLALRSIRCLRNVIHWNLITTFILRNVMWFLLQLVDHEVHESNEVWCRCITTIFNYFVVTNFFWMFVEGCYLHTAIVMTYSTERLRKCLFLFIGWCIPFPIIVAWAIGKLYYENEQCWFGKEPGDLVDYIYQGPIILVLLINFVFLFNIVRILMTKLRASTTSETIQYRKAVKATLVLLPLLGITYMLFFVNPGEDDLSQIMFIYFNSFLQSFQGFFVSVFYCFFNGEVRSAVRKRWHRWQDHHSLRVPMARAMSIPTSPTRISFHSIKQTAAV
T1 sequence (P24387 whole entry): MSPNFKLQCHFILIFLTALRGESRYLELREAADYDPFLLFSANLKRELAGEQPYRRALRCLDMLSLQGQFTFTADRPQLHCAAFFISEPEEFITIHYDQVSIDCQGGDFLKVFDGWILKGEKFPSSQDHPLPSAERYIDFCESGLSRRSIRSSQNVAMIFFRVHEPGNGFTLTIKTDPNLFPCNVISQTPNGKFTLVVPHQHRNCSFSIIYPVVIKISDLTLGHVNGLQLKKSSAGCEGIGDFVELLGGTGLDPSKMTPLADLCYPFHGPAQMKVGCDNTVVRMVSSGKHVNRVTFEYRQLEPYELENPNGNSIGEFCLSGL

[3] = target: T2, Streptokinase A (Streptococcus pyogenes serotype M1, UniProt P10520); experiment: viability-normalized secreted streptokinase activity reduction – plasminogen activation absorbance, OD405, dose response (AID 1914); assay type: functional, Streptococcus pyogenes M1 GAS;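 further: secreted streptokinase activity via plasminogen activation per viability signal from cell pellet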
T2 sequence (P10520 whole entry): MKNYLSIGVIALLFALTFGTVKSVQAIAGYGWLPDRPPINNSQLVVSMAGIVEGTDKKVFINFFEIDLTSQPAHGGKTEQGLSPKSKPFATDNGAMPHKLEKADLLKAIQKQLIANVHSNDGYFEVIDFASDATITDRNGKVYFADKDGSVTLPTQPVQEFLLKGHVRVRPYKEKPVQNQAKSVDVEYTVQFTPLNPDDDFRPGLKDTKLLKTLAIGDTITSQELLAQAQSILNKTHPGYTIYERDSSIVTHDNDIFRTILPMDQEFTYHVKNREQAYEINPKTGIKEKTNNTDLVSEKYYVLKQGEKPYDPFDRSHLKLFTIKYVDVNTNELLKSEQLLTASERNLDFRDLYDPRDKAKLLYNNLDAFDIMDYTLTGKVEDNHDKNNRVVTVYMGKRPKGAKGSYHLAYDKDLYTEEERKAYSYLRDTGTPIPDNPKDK

[4] = tested on: Streptococcus; experiment: GAS UMAA2166 growth inhibition – luminescence, BacTiterGlo, counter-screen for streptokinase expression inhibitor project, dose response (AID 1915); assay type: functional, organism-based;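 further: potency for reduction of bacterial viability or growth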
[5] = tested on: Streptococcus sp. 'group A'; experiment: Streptococcus pyogenes SK(-)GAS viability under kanamycin – luminescence, BacTiterGlo, confirmation, counter-screen for streptokinase expression inhibitor project, dose response (AID 1900); assay type: functional, organism-based
[6] = target: Nonstructural protein 1 (Influenza A virus, UniProt Q194T2); assay type: functional, Influenza A virus (A/California/07/2009(H1N1))
[7] = tested on: H9c2; experiment: cells; assay type: functional, cell-based; settings: Rattus norvegicus, H9c2, Myocardium;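 further: confirmatory concentration-response retest of ultra-high-throughput screening hits for modulation of myocardial damage; cell death induced by hydrogen peroxide oxidative stress; compound pretreatment for 60 min then peroxide exposure for 2 h; potency is for protecting the cells against peroxide damage rather than for killing them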
[8] = NIH-3T3 fibroblast cytotoxicity, dose response, cytotoxicity control, cell-based, fluorescence, Alamar Blue, secondary assay (AID 2327); assay type: functional;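 further: NIH-3T3 mouse fibroblasts cultured with fluconazole at 8 µg/mL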
[9] = NIH3T3 cell viability loss – ATP luminescence, mouse fibroblasts, counter-screen, dose response (AID 2010); assay type: functional, cell-based;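 further: cells exposed to compound for about 90 hours before reading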
[10] = fluconazole-exposed Candida albicans growth modulators – fluorescence, retest, confirmation (AID 2467); assay type: functional, cell-based
[11] = Trypanosoma cruzi growth suppression in host cells – NIH3T3 host cells, beta-gal luminescence, confirmation (AID 2044); assay type: functional, cell-based;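 further: intracellular parasites grown in NIH/3T3 mouse fibroblasts as host cells; luminescent beta-galactosidase reporter signal from transgenic T. cruzi replicating inside host cells; inhibitors lower the luminescence signal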
[12] = Luminescence Cell-Based Dose Retest to Confirm Inhibitors of Cancer Stem Cells. [Related pubchem assays (depositor defined):AID2717, AID2721]; assay type: functional; settings: Homo sapiens
[13] = target: Fatty acid synthase (Homo sapiens, UniProt P49327); experiment: inhibition of human FAS-TE enzyme activity – biochemical, kinetic fluorescence intensity, dose response (AID 624326); assay type: functional;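 further: rate of fluorescence rise from hydrolysis of a fluorogenic O-methyl fluorescein ester substrate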
[14] = Luminescence Cell-Based Dose Response HTS to Identify Inhibitors of 5'UTR Stem-Loop Driven Prion Protein mRNA Translation in H4 Neuroglioblastoma Cells. [Related pubchem assays: 1827 (Project Summary), 1813 (Primary HTS)]; assay type: functional
[15] = alpha-synuclein stem-loop luciferase translation blockers – H4 neuroglioma cells, luminescence, confirmation (AID 1988); assay type: functional, cell-based
[16] = luciferase reporter signal suppression in cells – H4 neuroglioma cells, luminescence, dose response (AID 1990); assay type: functional, cell-based
[17] = toxicity toward HepG2 liver cells – cell-based, plate reader, cherry-pick, antagonist series, cytotoxicity control, dose response (AID 743416); assay type: functional
[18] = blockade of melanocortin 4 receptor signaling – cell-based, plate reader, cherry pick, counter-screen for LGR2 antagonist project, dose response (AID 743444); assay type: functional;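 further: transfected HEK 293 cells stimulated with alpha-MSH peptide; potency of inhibitors of the alpha-MSH evoked signal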
[19] = target: T3, Replicative DNA helicase DnaB (Mycobacterium tuberculosis, UniProt P9WMR3); experiment: DnaB intein splicing inhibitors, dose response, biochemical, cell-free fluorescence (AID 449749); assay type: functional
T3 sequence (P9WMR3 whole entry): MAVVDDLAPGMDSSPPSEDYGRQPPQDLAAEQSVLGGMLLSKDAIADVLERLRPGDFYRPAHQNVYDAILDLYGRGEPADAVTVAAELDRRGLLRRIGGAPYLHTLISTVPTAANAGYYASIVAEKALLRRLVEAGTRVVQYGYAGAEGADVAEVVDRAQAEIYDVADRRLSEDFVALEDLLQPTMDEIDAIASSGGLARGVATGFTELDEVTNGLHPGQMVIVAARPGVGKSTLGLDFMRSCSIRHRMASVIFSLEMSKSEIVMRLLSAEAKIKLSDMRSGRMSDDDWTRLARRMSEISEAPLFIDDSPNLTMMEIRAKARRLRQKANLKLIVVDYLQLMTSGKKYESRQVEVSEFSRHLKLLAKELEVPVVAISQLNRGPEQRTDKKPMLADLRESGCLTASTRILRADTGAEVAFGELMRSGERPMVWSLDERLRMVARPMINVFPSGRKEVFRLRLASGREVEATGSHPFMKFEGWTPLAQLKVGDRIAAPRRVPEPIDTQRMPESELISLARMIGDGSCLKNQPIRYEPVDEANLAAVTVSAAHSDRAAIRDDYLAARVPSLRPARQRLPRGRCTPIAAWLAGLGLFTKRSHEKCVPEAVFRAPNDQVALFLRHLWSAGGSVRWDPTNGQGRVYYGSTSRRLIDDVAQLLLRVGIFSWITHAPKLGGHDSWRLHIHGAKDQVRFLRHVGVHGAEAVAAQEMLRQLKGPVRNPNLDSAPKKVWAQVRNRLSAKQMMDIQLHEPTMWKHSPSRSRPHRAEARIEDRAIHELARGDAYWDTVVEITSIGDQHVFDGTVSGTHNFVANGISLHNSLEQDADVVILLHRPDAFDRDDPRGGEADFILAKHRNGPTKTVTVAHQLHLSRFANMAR

[20] = target: T4, Protein RecA (Mycobacterium tuberculosis, UniProt P9WHJ3); experiment: Fluorescence Cell-Free Homogeneous Dose Retest to Identify Inhibitors of RecA-Intein Splicing Activity. [Related pubchem assays (depositor defined):AID2097, AID2223, AID489010, AID492950]; assay type: functional
T4 sequence (P9WHJ3 whole entry): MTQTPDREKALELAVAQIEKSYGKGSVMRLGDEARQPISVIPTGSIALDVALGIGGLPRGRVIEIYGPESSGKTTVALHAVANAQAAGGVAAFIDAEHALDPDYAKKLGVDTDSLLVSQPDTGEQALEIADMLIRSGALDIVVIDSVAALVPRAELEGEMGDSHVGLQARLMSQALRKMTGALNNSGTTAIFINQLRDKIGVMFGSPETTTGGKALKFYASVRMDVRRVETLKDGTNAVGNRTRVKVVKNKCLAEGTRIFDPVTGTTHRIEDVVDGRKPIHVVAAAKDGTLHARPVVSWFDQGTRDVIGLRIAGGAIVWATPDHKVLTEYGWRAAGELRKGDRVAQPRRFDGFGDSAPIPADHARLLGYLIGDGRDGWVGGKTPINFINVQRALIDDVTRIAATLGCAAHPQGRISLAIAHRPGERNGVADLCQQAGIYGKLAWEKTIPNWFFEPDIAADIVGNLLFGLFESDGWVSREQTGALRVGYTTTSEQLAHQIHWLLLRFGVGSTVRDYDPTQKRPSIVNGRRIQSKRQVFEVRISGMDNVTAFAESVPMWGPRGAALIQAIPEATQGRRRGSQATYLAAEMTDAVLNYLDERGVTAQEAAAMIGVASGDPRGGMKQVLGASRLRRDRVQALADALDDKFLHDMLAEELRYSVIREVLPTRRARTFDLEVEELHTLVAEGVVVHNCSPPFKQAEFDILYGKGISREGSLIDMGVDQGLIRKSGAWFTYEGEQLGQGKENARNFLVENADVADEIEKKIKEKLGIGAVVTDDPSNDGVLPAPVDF

Sequence of Nonstructural protein 1 (Q194T2 whole entry): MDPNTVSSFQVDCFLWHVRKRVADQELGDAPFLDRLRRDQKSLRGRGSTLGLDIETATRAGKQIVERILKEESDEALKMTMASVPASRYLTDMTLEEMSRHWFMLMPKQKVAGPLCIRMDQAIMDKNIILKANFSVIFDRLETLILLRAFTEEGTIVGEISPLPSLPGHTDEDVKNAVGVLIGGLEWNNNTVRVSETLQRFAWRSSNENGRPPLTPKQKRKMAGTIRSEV
Sequence of Fatty acid synthase (P49327 whole entry): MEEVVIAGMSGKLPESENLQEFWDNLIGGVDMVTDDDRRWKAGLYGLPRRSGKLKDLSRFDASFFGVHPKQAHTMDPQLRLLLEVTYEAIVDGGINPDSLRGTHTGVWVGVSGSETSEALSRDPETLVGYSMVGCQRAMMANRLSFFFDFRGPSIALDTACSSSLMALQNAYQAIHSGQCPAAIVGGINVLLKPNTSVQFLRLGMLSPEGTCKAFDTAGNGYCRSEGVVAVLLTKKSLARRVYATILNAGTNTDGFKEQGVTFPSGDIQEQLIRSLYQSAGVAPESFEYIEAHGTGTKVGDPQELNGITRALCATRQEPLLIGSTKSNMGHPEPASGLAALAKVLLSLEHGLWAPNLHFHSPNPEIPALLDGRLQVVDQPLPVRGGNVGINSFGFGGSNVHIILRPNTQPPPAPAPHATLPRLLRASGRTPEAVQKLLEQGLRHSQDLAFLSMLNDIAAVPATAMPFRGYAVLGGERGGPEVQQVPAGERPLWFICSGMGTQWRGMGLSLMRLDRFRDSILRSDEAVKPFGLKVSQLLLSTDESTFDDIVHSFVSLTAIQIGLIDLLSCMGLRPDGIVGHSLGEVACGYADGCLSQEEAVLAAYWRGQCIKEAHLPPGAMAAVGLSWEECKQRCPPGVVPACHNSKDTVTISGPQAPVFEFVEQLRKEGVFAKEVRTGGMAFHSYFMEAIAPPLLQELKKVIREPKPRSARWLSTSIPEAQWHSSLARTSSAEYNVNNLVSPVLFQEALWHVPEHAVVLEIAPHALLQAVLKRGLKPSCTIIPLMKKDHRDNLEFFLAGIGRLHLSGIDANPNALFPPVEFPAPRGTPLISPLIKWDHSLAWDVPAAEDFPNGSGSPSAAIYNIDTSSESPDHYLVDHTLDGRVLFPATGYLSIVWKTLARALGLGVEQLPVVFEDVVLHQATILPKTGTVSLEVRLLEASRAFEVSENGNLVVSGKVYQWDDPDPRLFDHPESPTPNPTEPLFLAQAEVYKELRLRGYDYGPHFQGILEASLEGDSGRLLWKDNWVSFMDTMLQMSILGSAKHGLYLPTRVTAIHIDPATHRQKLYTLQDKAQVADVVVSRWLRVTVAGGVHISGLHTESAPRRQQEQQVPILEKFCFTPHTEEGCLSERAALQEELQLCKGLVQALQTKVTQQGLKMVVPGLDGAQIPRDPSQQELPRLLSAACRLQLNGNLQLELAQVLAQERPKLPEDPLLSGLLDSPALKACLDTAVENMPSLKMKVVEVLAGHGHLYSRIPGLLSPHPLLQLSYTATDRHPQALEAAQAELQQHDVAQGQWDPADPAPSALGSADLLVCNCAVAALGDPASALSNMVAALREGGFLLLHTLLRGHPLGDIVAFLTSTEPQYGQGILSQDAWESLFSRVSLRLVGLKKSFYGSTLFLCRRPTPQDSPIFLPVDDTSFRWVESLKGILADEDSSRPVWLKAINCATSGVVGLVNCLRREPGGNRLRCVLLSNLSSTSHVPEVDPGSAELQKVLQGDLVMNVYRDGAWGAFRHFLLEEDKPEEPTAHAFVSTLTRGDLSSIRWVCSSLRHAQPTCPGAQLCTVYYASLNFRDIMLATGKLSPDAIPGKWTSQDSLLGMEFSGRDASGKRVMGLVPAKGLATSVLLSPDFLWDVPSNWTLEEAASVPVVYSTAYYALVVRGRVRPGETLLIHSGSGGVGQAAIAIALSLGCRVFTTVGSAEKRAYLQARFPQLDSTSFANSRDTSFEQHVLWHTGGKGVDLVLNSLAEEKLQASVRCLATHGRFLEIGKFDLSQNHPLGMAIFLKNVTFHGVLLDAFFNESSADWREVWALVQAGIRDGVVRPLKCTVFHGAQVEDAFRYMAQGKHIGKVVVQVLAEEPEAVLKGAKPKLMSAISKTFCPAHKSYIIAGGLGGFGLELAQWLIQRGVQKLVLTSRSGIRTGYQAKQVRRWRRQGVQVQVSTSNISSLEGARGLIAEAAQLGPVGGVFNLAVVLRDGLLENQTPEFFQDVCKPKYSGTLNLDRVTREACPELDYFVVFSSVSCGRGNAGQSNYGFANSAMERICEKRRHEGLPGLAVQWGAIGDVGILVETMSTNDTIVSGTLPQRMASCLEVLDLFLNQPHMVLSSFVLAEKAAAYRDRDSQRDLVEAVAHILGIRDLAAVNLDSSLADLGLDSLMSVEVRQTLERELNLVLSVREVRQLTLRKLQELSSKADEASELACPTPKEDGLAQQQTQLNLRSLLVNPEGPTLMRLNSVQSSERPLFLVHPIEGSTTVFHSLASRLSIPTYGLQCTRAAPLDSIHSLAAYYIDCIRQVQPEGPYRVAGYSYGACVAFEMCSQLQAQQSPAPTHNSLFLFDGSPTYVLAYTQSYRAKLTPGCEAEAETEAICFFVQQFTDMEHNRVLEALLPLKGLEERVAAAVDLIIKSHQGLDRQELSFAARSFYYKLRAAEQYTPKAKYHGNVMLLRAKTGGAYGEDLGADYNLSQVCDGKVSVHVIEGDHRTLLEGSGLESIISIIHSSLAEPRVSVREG

CCc1noc(C)c1C(=O)Nc1nc(-c2ccc(F)cc2)c(C)s1
CC50 [1]: > 40 µM (active)

Cc1cc(-c2cccs2)c2c(N)c(C(=O)c3ccc4c(c3)OCO4)sc2n1
EC50 [2]: 7.29 µM (active)

CCCCCn1c(N)c(-c2nc3ccccc3s2)c2c([N+](=O)[O-])nn(CC)c(=O)c21
EC50 [3]: > 150 µM (not active) | EC50 [4]: > 150 µM (not active) | EC50 [5]: 6.03 µM (active) | IC50 [6]: > 50 µM (active)

Cc1ccc(C(C(=O)NCc2ccccc2)N(Cc2ccco2)C(=O)c2snc(C(N)=O)c2N)o1 (configuration not stated)
IC50 [7]: > 79 µM (inactive)

Cc1ccc(NS(=O)(=O)c2ccc(C(=O)N3CCCC(C(F)(F)F)C3)cc2)cc1 (configuration not stated)
EC50 [2]: 5.17 µM (active)

CCC(c1nnnn1Cc1ccco1)N(Cc1cc2cc(C)cc(C)c2nc1O)CC1CCCO1 (configuration not stated)
IC50 [7]: > 79 µM (inactive)

CC(C)OC(=O)C(=O)NNc1ccccc1
EC50 [8]: 1.21 µM (active) | EC50 [9]: < 6 µM (inconclusive) | EC50 [10]: > 38 µM (not active) | EC50 [11]: 0.792 µM (active) | AC50 [12]: 0.731 µM (active)

Cc1cccc(OCCn2nc(C(=O)O)c3ccccc3c2=O)c1
IC50 [7]: > 79 µM (inactive)

CCCOP(=O)(OCCC)c1c([N+](=O)[O-])cc(C(F)(F)F)cc1[N+](=O)[O-]
CC50 [1]: 24.2 µM (active)

CC(OC(=O)CCc1nc(O)c2ccccc2n1)C(=O)NC1CCCC1 (configuration not stated)
IC50 [7]: 30.3 µM (inactive)

COc1ccc(CNC(=O)c2ccc(Cn3nc(C)c([N+](=O)[O-])c3C)o2)cc1
IC50 [7]: > 79 µM (inactive)

O=C(CCS(=O)(=O)c1ccccc1)Nc1nnc(C(F)(F)F)s1
EC50 [8]: > 160 µM (inactive) | EC50 [10]: 0.302 µM (active)

Cc1cc(N2C(=O)C(O)=C(C(=O)c3cc4ccccc4o3)C2c2cccs2)no1 (configuration not stated)
EC50 [8]: 70.9 µM (active) | EC50 [10]: 1.17 µM (active)

COc1ccc(CNC(=O)/C=C/c2cc([N+](=O)[O-])ccc2OC(F)F)cc1OC
IC50 [13]: 3.28 µM (active)

CCOc1ccc(N2CCc3c(C)nc(SC)nc32)cc1
CC50 [1]: 34.9 µM (active)

Oc1ccc(NCc2nnc(O)c3ccccc23)cc1
IC50 [7]: > 79 µM (inactive)

O=C(CCc1nc(O)c2ccccc2n1)NNC(=O)c1ccccc1Cl
IC50 [7]: 16.2 µM (active)

CCOC(=O)c1ccc(NC(=O)Nc2ccn(C)n2)cc1
EC50 [8]: > 150 µM (inconclusive) | EC50 [10]: 4.84 µM (active)

Cc1cc(C)nc(NC(N)=Nc2ccc(CC(=O)OC(C)C)cc2)n1
EC50 [2]: 2.56 µM (active)

CCCCN(C)C(=O)Cc1c(OC)ccc2cc(Br)ccc12
CC50 [1]: > 40 µM (active)

O=C(CC(NCCN1CCOCC1)C(=O)O)Nc1cccc(Cl)c1 (configuration not stated)
EC50 [8]: 86.4 µM (active) | EC50 [10]: > 38 µM (not active)

Cc1c(C(=O)Nc2nc3ccccc3[nH]2)oc2c(Cl)cccc12
EC50 [9]: > 60 µM (not active) | EC50 [4]: 8.37 µM (active) | EC50 [5]: 1.72 µM (active) | CC50 [1]: 32.4 µM (active) | EC50 [11]: 1.68 µM (active)

CCCCN(Cc1nc(O)c2ccccc2n1)C(=O)CN1C(=O)NC2(CCCCC2)C1=O
IC50 [7]: 16.4 µM (active)

COC(=O)c1scc(C)c1NC(=O)c1ccccc1F
EC50 [2]: > 53 µM (inactive)

Nc1nonc1-n1nnc(C(=O)N/N=C/c2ccccn2)c1CNc1ccccc1
IC50 [7]: 18.1 µM (active)

O=C(Nc1cccc(/N=C/c2cc(Cl)cc(Br)c2O)c1)c1ccco1
IC50 [7]: 12.3 µM (active)

COc1ccccc1C(=O)NCC(=O)N/N=C/c1cc(Br)ccc1OC(=O)/C=C\c1ccco1
EC50 [14]: 12 µM (active) | IC50 [7]: > 79 µM (inactive) | EC50 [15]: 11 µM (active) | EC50 [16]: 11.9 µM (active)

CC1(C)CS/C(=N\Cc2ccccc2)N1C(=O)c1cccc([N+](=O)[O-])c1
EC50 [2]: 7.16 µM (active)

C[C@H](CO)N1C[C@H](C)[C@H](CN(C)C(=O)Cc2ccccc2)OCCCC[C@H](C)Oc2ccc(NC(=O)Nc3ccc(C(F)(F)F)cc3)cc2C1=O
AC50 [17]: 35 µM (active) | AC50 [18]: 4.79 µM (active)

O=C(O)c1cccc(N/N=C(\N=Nc2ccccc2)c2ccccc2)c1
IC50 [6]: 34.5 µM (active) | AC50 [19]: 7.75 µM (active) | AC50 [12]: 2.45 µM (active) | EC50 [20]: 51.1 µM (active)
